In US9708314B2, “Heterocyclic amide compound” (NISSAN CHEMICAL INDUSTRIES, LTD., priority 2013, dated 2017):

Assays:
Format in all cases: in vivo
[1] = system: directly sowed Oryza sativa; experiment: Test Example 3: effect on crop by application to foliage (Wagner pot, water depth 0.1-0.5 cm); settings: Nineteenth Table
Procedure, shortened: (§1)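 Foliar spray, 14-day-old plants, emulsion diluted to target g/ha; rated 3 wk post-application, 0–5 scale (0 ≤5%, 5 ≥90% herbicidal ratio). Greenhouse 25–30 °C, alluvial soil.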

[2] = system: Leptochloa chinensis; experiment: Test Example 3: herbicidal effect by application to foliage (Wagner pot, water depth 0.1-0.5 cm); settings: Nineteenth Table
Procedure, shortened: as §1

[3] = system: Echinochloa crus-galli var. crus-galli; experiment: as above; settings: Nineteenth Table
Procedure, shortened: as §1

[4] = system: Cyperus difformis; experiment: as above; settings: Nineteenth Table
Procedure, shortened: as §1

[5] = system: Monochoria vaginalis; experiment: Test Example 2: herbicidal activity, application during weed generation in submerged conditions; settings: Eighteenth Table
Text: (§2) 5 Herbicidal ratio of 90% or more (almost completely withered) 4 Herbicidal ratio of 70% or more and less than 90% 3 Herbicidal ratio of 40% or more and less than 70% 2 Herbicidal ratio of 20% or more and less than 40% 1 Herbicidal ratio of 5% or more and less than 20% 0 Herbicidal ratio of 5% or less (almost no effect) [Test Example 2] Herbicidal Activity Test by Application During Weed Generation in Submerged Conditions After alluvial soil was placed into 1/10000 are of Wagner pot, water was poured and mixed to form a submerged condition having a water depth of 4 cm. Seeds of Echinochloa oryzacola Vasing., Scirpus juncoides, and Monochoria vaginalis were sowed in a mixed manner in the above pot and the pot was placed in the greenhouse of 25° C. to 30° C. to grow the plants. When Echinochloa oryzacola Vasing., Scirpus juncoides, and Monochoria vaginalis were grown to one leaf stage to two leaf stage, the emulsion agent containing the compound of the present invention prepared in accordance with Formulation Example 2 was diluted with water so as to be a predetermined herbicide amount and the diluted compound was applied to the surface of the water. Three weeks after the herbicide application, effects on each plant were investigated in accordance with the criteria of Test Example 1. A: Echinochloa oryzicola Vasing., B: Scirpus juncoides, C: Monochoria vaginalis, D: Leptochloa chinensis, E: Cyperus difformis, F: Digitaria ciliaris, G: Setaria viridis, H: Echinochloa crus-galli var. crus-galli, I: Avena fatua, J: Alopecurus myosuroides, K: Lolium multiflorum Lam., L: Apera spica-venti., M: Abutilon theophrasti, N: Amaranthus retroflexus, O: Chenopodium album, P: Stellaria media, Q: Galium spurium, R: Veronica persica, a: transplanted Oryza sativa, b: directly sowed Oryza sativa, c: Zea mays, d: Glycine max, e: Triticum aestivum, f: Beta vulgaris ssp. vulgaris, and g: Brassica campestris L. The application herbicide amount (g/ha) means an amount that a concentration is adjusted so that, when an application amount is converted into per hectare (1 ha), the herbicide is applied by the number of grams (g) of the described value.

[6] = system: Echinochloa oryzacola Vasing.; experiment: as above; settings: Eighteenth Table
Text: as §2

[7] = system: Scirpus juncoides; experiment: as above; settings: Eighteenth Table
Text: as §2

[8] = system: Zea mays; experiment: Test Example 4: effect on crop by application to foliage (diluvial soil, plastic box); settings: application to foliage, application herbicide amount 320 g/ha
Procedure, shortened: (§3)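 Greenhouse plants (25° C. to 30° C., 14 d, diluvial soil) receive a foliar spray of water-diluted emulsifiable formulation at defined g/ha. Grading after 3 weeks uses a six-step herbicidal-ratio scale, with 4 covering 70% to <90% and 1 covering 5% to <20%.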

[9] = system: Triticum aestivum; experiment: as above; settings: application to foliage; for e (Triticum aestivum) effect on crop: application herbicide amount 320 g/ha
Procedure, shortened: as §3

[10] = application herbicide amount 320 g/ha
[11] = application herbicide amount 400 g/ha
[12] = application herbicide amount 280 g/ha
[13] = application to foliage, application herbicide amount 141 g/ha
[14] = application herbicide amount 141 g/ha

Row | Compound | b (directly sowed Oryza sativa) effect on crop grade [1, 10] | D (Leptochloa chinensis) herbicidal ratio grade [2, 10] | H (Echinochloa crus-galli var. crus-galli) herbicidal ratio grade [3, 10] | E (Cyperus difformis) herbicidal ratio grade [4, 10] | C (Monochoria vaginalis) herbicidal ratio grade [5, 10] | A (Echinochloa oryzicola Vasing.) herbicidal ratio grade [6, 10] | B (Scirpus juncoides) herbicidal ratio grade [7, 10] | b (Zea mays) effect on crop [8] | e (Triticum aestivum) effect on crop [9] | b (directly sowed Oryza sativa) effect on crop grade [1, 11] | D (Leptochloa chinensis) herbicidal ratio grade [2, 11] | H (Echinochloa crus-galli var. crus-galli) herbicidal ratio grade [3, 11] | E (Cyperus difformis) herbicidal ratio grade [4, 11] | also measured
1 | Cc1nnc(NC(=O)c2ccc(C(F)(F)F)n3cnnc23)o1 [1-001] | 0 (Herbicidal ratio of 5% or less (almost no effect)) | 5 (Herbicidal ratio of 90% or more (almost completely withered)) | 5 (Herbicidal ratio of 90% or more (almost completely withered)) | 4 (Herbicidal ratio of 70% or more and less than 90%) | 2 (Herbicidal ratio of 20% or more and less than 40%) | 4 (Herbicidal ratio of 70% or more and less than 90%) | 4 (Herbicidal ratio of 70% or more and less than 90%) | 0 (Herbicidal ratio of 5% or less (almost no effect)) | 1 (Herbicidal ratio of 5% or more and less than 20%) | – | – | – | – | –
2 | Cc1nnc(NC(=O)c2ccc(C(F)(F)F)n3c(C(C)C)nnc23)o1 [1-004, 3-Isopropyl-N-(5-methyl-1,3,4-oxadiazol-2-yl)-5-(trifluoromethyl)-[1,2,4]triazolo[4,3-a]pyridine-8-carboxamide] | – | – | – | – | 4 (Herbicidal ratio of 70% or more and less than 90%) | 4 (Herbicidal ratio of 70% or more and less than 90%) | 3 (Herbicidal ratio of 40% or more and less than 70%) | 0 (Herbicidal ratio of 5% or less (almost no effect)) | 2 (Herbicidal ratio of 20% or more and less than 40%) | 0 (Herbicidal ratio of 5% or less (almost no effect)) | 5 (Herbicidal ratio of 90% or more (almost completely withered)) | 4 (Herbicidal ratio of 70% or more and less than 90%) | 5 (Herbicidal ratio of 90% or more (almost completely withered)) | –
3 | CCc1nnc(NC(=O)c2ccc(C(F)(F)F)n3c(C(C)C)nnc23)o1 [1-005] | – | – | – | – | 0 (Herbicidal ratio of 5% or less (almost no effect)) | 5 (Herbicidal ratio of 90% or more (almost completely withered)) | 1 (Herbicidal ratio of 5% or more and less than 20%) | 0 (Herbicidal ratio of 5% or less (almost no effect)) | 0 (Herbicidal ratio of 5% or less (almost no effect)) | 0 (Herbicidal ratio of 5% or less (almost no effect)) | 5 (Herbicidal ratio of 90% or more (almost completely withered)) | 2 (Herbicidal ratio of 20% or more and less than 40%) | 5 (Herbicidal ratio of 90% or more (almost completely withered)) | –
4 | Cc1nnc(NC(=O)c2ccc(C(F)(F)F)n3c(C4CC4)nnc23)o1 [1-010] | – | – | – | – | 4 (Herbicidal ratio of 70% or more and less than 90%) | 4 (Herbicidal ratio of 70% or more and less than 90%) | 1 (Herbicidal ratio of 5% or more and less than 20%) | 0 (Herbicidal ratio of 5% or less (almost no effect)) | 1 (Herbicidal ratio of 5% or more and less than 20%) | 0 (Herbicidal ratio of 5% or less (almost no effect)) | 5 (Herbicidal ratio of 90% or more (almost completely withered)) | 5 (Herbicidal ratio of 90% or more (almost completely withered)) | 4 (Herbicidal ratio of 70% or more and less than 90%) | –
5 | CCC(CC)c1nnc2c(C(=O)Nc3nnc(C)o3)ccc(C(F)(F)F)n12 [1-011] | – | – | – | – | 3 (Herbicidal ratio of 40% or more and less than 70%) | 5 (Herbicidal ratio of 90% or more (almost completely withered)) | 3 (Herbicidal ratio of 40% or more and less than 70%) | 0 (Herbicidal ratio of 5% or less (almost no effect)) | 0 (Herbicidal ratio of 5% or less (almost no effect)) | 0 (Herbicidal ratio of 5% or less (almost no effect)) | 5 (Herbicidal ratio of 90% or more (almost completely withered)) | 5 (Herbicidal ratio of 90% or more (almost completely withered)) | 5 (Herbicidal ratio of 90% or more (almost completely withered)) | –
6 | Cc1nnc(NC(=O)c2ccc(C(F)(F)F)n3c(Br)nnc23)o1 [1-014] | 1 (Herbicidal ratio of 5% or more and less than 20%) | 2 (Herbicidal ratio of 20% or more and less than 40%) | 5 (Herbicidal ratio of 90% or more (almost completely withered)) | 4 (Herbicidal ratio of 70% or more and less than 90%) | – | – | – | 1 (Herbicidal ratio of 5% or more and less than 20%) | 1 (Herbicidal ratio of 5% or more and less than 20%) | – | – | – | – | C (Monochoria vaginalis) herbicidal ratio grade [5, 12]: 0 (Herbicidal ratio of 5% or less (almost no effect)); A (Echinochloa oryzicola Vasing.) herbicidal ratio grade [6, 12]: 2 (Herbicidal ratio of 20% or more and less than 40%); B (Scirpus juncoides) herbicidal ratio grade [7, 12]: 3 (Herbicidal ratio of 40% or more and less than 70%)
7 | COCc1nnc2c(C(=O)Nc3nnc(C)o3)ccc(C(F)(F)F)n12 [1-015] | 1 (Herbicidal ratio of 5% or more and less than 20%) | 5 (Herbicidal ratio of 90% or more (almost completely withered)) | 5 (Herbicidal ratio of 90% or more (almost completely withered)) | 4 (Herbicidal ratio of 70% or more and less than 90%) | 1 (Herbicidal ratio of 5% or more and less than 20%) | 4 (Herbicidal ratio of 70% or more and less than 90%) | 2 (Herbicidal ratio of 20% or more and less than 40%) | 0 (Herbicidal ratio of 5% or less (almost no effect)) | 2 (Herbicidal ratio of 20% or more and less than 40%) | – | – | – | – | –
8 | CCOC(=O)Cc1nnc2c(C(=O)Nc3nnc(C)o3)ccc(C(F)(F)F)n12 [1-042] | 1 (Herbicidal ratio of 5% or more and less than 20%) | – | 5 (Herbicidal ratio of 90% or more (almost completely withered)) | 4 (Herbicidal ratio of 70% or more and less than 90%) | 3 (Herbicidal ratio of 40% or more and less than 70%) | 1 (Herbicidal ratio of 5% or more and less than 20%) | 2 (Herbicidal ratio of 20% or more and less than 40%) | 0 (Herbicidal ratio of 5% or less (almost no effect)) | 0 (Herbicidal ratio of 5% or less (almost no effect)) | – | – | – | – | –
9 | CCN(C)c1nnc2c(C(=O)Nc3nnnn3C)ccc(C(F)(F)F)n12 [2-088] | – | – | – | – | – | – | – | – | – | – | – | – | – | b (effect on crop grade) [1, 13]: 3 (Herbicidal ratio of 40% or more and less than 70%); D (herbicidal effect grade) [2, 13]: 5 (Herbicidal ratio of 90% or more (almost completely withered)); H (herbicidal effect grade) [3, 13]: 5 (Herbicidal ratio of 90% or more (almost completely withered)); E (herbicidal effect grade) [4, 13]: 4 (Herbicidal ratio of 70% or more and less than 90%); C (Monochoria vaginalis) herbicidal ratio grade [5, 14]: 4 (Herbicidal ratio of 70% or more and less than 90%); A (Echinochloa oryzicola Vasing.) herbicidal ratio grade [6, 14]: 4 (Herbicidal ratio of 70% or more and less than 90%); B (Scirpus juncoides) herbicidal ratio grade [7, 14]: 3 (Herbicidal ratio of 40% or more and less than 70%); effect on crop, e (Triticum aestivum) ([9]; 141 g/ha): 0 (Herbicidal ratio of 5% or less (almost no effect))
